Reference: patent US11661581B2, “Use of CDK inhibitors to enhance growth and self-renewal of progenitor cells” (University of Massachusetts, priority 2017, dated 2023)
“Also recorded” adds a separate entry of the source.

Columns and labels:
[1] = tested on: mouse bone marrow CFU-e progenitors; experiment: CFU-e colony formation in semi-solid medium from mouse bone marrow cultures; format: cell-based; settings: for increase in absolute CFU-e numbers relative to control cultures: day 5 of culture
Method: (17B) Mouse bone marrow erythroid progenitors, treated as described in A, but plated on day 5 of the culture in semi-solid medium, CFU-e colonies scored 72 hours later.

[2] = tested on: mouse bone marrow erythroid progenitors; experiment: Mouse adult bone marrow erythroid self-renewal culture, amplification of cell number; format: cell-based; settings: for growth of mouse bone marrow erythroid progenitors (in words): drug at five times its respective IC50, two independent experiments
Method: (§1) Adult bone marrow mononuclear cells (StemCell Technologies) (A), mouse fetal liver (B) and mouse adult bone marrow (C-D), were cultured in the presence of Dex, Epo, SCF and IGF-1. Dex slows down and delays the transition from self-renewal to differentiation of early CFU-e progenitors, leading to their numerical amplification.
The doses chosen for all these inhibitors were approximately 5 times the IC50 for each drug.

[3] = tested on: human bone marrow self-renewing cultures; experiment: Flow cytometry of human bone marrow self-renewing cultures; format: cell-based; settings: day 10 of culture
Source text: (18B) Flow cytometric analysis of human bone marrow self-renewing cultures, on day 10 of culture.

[4] = tested on: human adult bone marrow mononuclear cells (erythroid progenitors); experiment: Human bone marrow erythroid self-renewal culture, amplification of cell number; format: cell-based; settings: peak on day 16; pooled from two independent experiments; roscovitine concentration not stated (1, 5 or 10 μM)
Method: as §1
(§2) We cultured hematopoietic tissue cells from either mouse adult bone marrow, mouse fetal liver (mid-gestation, embryonic day 13.5), or human adult bone marrow (StemCell Technologies, Vancouver, Canada), under conditions that facilitate self-renewal of colony-forming-unit-erythroid (CFU-e), in which the following are added to the culture medium: erythropoietin (Epo, 2 Units/ml), Stem Cell Factor (SCF, 100 ng/ml), Insulin-like Growth Factor 1 (IGF1, 40 ng/ml) and dexamethasone (Dex, 1 μM). Control cultures contained no other specialized additives; parallel cultures had, in addition, the CDK inhibitor roscovitine (1, 5 or 10 μM) (Pippin et al., J Clin Invest 100, 2512-2520 (1997); Meijer et al., European Journal of Biochemistry 243, 527-536 (1997)). […]

[5] = tested on: human bone-marrow CFU-e progenitors; experiment: CFU-e colony formation in semi-solid medium from human bone marrow cultures; settings: cells taken on day 11 of culture
Method: (17A) Human bone-marrow erythroid progenitors were amplified in cultures as in FIG. 1A. On day 11 of culture, cells were plated in semi-solid methylcellulose medium under differentiation conditions (in the presence of Epo and in the absence of Dex or SCF). CFU-e colonies were scored at 72 hours using diaminobenzidine staining to identify hemoglobinized cells. The absolute number of CFU-e progenitors obtained from the same initial starting number in each culture is shown. All statistically significant differences are noted (two-tailed t test, unequal variance).

[6] = tested on: wild-type CFU-e; experiment: Dex-dependent CFUe self-renewal (expansion) culture of wild-type fetal liver cells; format: cell-based, mouse
Method: (§3) To isolate Ter119-negative cells, fresh fetal liver cells were stained with biotin-conjugated anti-Ter119 (BD Biosciences 553672) at 1:100, followed by EasySep magnetic separation (StemCell Technologies). Cells were grown in Stem-Pro-34 serum free medium supplemented with nutrient supplement (Invitrogen), 1 μM dexamethasone (Sigma), 100 ng/ml SCF (PeproTech), 40 ng/ml IGF1 (PeproTech), 2 U/ml Epo, 100 U/ml penicillin/streptomycin (Invitrogen) and 2 mM L-glutamine (Invitrogen). Cells were maintained at 2×10^6 cells/ml, and supplemented daily with fresh medium and growth factors. To test the effect of roscovitine on p57^KIP2−/− fetal liver cells in expansion culture, cells were grown and maintained as described above with the additional supplemented daily of 0.5 μM roscovitine (EMD Millipore 557360). To switch to differentiation medium, after being maintained in expansion medium for 4 to 5 days, Ter119-negative cells were isolated again using EasySep magnetic beads (StemCell Technologies). Cells were then transferred to IMDM (L-glutamine, 25 mM HEPES) (Gibco), 20% fetal calf serum (Gibco, HyClone), 100 U/ml penicillin/streptomycin (Invitrogen), […] β-mercapthoethanol (Sigma) and 2 U/ml Epo.
In three independent experiments, wild-type cells growing in roscovitine were amplified an average of 1.92±0.43 fold more than wild-type cells without treatment.

[7] = tested on: p57KIP2-deficient fetal liver CFUe; experiment: Dex-dependent CFUe self-renewal (expansion) culture of p57KIP2-deficient fetal liver cells; format: cell-based, mouse; settings: self-renewal medium Epo+Dex; roscovitine 0.5 μM
Method: as §3
We also investigated whether CDK inhibition could underlie the essential role that p57^KIP2 plays in maintaining the viability of self-renewing CFUe.

[8] = tested on: p57KIP2-/- CFUe; experiment: CFUe colony potential of p57KIP2-/- cells from Dex self-renewal cultures; settings: day 11 of culture, 10^5 cells per dish, colonies scored 72 hours after plating
Method: (12B) Analysis of CFUe potential in Dex-dependent self-renewal cultures of p57^KIP2−/− cells treated with roscovitine (See FIG. 5I). On day 11 of culture, cells amplified in the presence or absence of roscovitine were plated at 10^5 cells per dish in Epo-containing semi-solid medium. The number of CFUe colonies formed per dish was scored 72 hours following plating.

[9] = tested on: mouse bone marrow self-renewing cultures; experiment: Flow cytometry and BrdU cell cycle analysis of mouse bone marrow self-renewing cultures; format: cell-based
Method: (18A) Flow cytometric analysis of mouse bone marrow self-renewing cultures, on day 6 of culture. […] The overall viability of cells in roscovitine-treated cultures was increased (not shown). Bottom panels: corresponding cell cycle analysis of cells in each culture. Cells were pulsed with BrdU at 33 μM for 25 min before analysis.
We examined cells in the self-renewing cultures using flow-cytometry. Cell surface markers CD71 and Ter119 denote the differentiation stage of erythroid progenitors and precursors in mouse hematopoietic tissue^81,41. […] By contrast, control cultures contained a substantial fraction (35%) of Ter119+ cells.

[10] = tested on: mouse fetal liver erythroid cells; experiment: Mouse fetal liver erythroid self-renewal culture (Example 2), amplification of cell number; format: cell-based; settings: Dex, Epo, SCF, IGF-1
Method: as §1, §2

## CC(=O)c1c(C)c2cnc(Nc3ccc(N4CCNCC4)cn3)nc2n(C2CCCC2)c1=O [PD0332991]
[1]; 0.1 μM
  absolute number of CFU-e progenitors by colony formation assay versus control: either no significant effect or an inhibitory effect
[2]; 0.1 μM
  amplification of erythroid cell number versus control cultures: either no significant effect or an inhibitory effect
[2]
  growth of mouse bone marrow erythroid progenitors (in words): growth inhibition

## NS(=O)(=O)c1ccc(N/N=C2\C(=O)Nc3ccc(Br)cc32)cc1 [SC-221409]
[1]; 0.5 μM
  absolute number of CFU-e progenitors by colony formation assay versus control: significant increase
[2]; 0.5 μM
  amplification of erythroid cell number versus control cultures: significant increase
[2]
  growth of mouse bone marrow erythroid progenitors (in words): improved growth

## CC[C@H](CO)Nc1nc(NCc2ccccc2)c2ncn(C(C)C)c2n1 [roscovitine]
[3]
  cells expressing glycophorin A (in words): fewer cells are glycophorin A positive
[3]; listed as Roscovitine
  cells expressing glycophorin A (in words): lower number
[4]
  peak amplification of cell number: 9 fold
[5]; 1 μM
  increase in absolute number of CFU-e progenitors over control cultures: 3.9 fold
[5]; 5 μM
  increase in absolute number of CFU-e progenitors relative to control: 4.5 fold
[6]; Dex cultures
  amplification of wild-type CFU-e (in words): enhanced the amplification; also recorded: also enhanced
[6]; average of three independent experiments
  amplification of wild-type cells relative to wild-type cells without treatment: 1.92±0.43 fold
[6]; period of 7-9 days
  progenitors from wild-type cells relative to absence of drug: 2 fold
[6]; roscovitine 0.5 μM
  normal expansion of CFUe cultures derived from wild-type littermates: little effect
[7]
  Dex-dependent self-renewal and expansion of p57KIP2-deficient CFUe: rescued self-renewal; also recorded: rescue the self-renewal; also recorded: successfully rescued
[1]; 1 μM
  increase in absolute CFU-e numbers relative to control cultures: 62%
[1]; 5 μM
  increase in absolute CFU-e numbers relative to control cultures: 40%
[8]
  CFUe colony forming potential of treated p57KIP2-/- cells versus untreated cells: retained the same potential; also recorded: preserved CFUe colony potential
[2]
  growth of mouse bone marrow erythroid progenitors (in words): improved growth
[2]; roscovitine 1, 5 or 10 μM
  cell numbers in mouse adult bone marrow cultures (in words): significantly higher cell numbers
[9]; BrdU 33 μM pulse for 25 min
  number of S phase cells (in words): fewer S phase cells
  speed of S phase, rate of BrdU incorporation (BrdU MFI in S phase gate): substantially slower
[9]; BrdU 33 μM pulse for 25 min, listed as Roscovitine
  speed of S phase, rate of BrdU incorporation (BrdU MFI in S phase gate): slower S phase
[9]; day 6 of culture
  terminally-differentiating Ter119+ erythroblasts compared with control (in words): relative absence
[9]; day 6 of culture, data not shown
  overall viability of cells in culture: increased
[9]; mouse bone marrow cultures, roscovitine-treated
  cells in the culture expressing Ter119: 6%
[10]
  amplification of erythroid cell number in mouse fetal liver cultures (in words): increased amplification; also recorded: significantly higher cell numbers
